Values joined by “and” are separate entries in the source; they are usually repeats but may differ in a detail not shown here. Equal values may be shown once. Records with an inconclusive call do not appear.
System: BDF1 mice, colon carcinoma 38 sc, T/C %
Assay: NCI In Vivo Anticancer Drug Screen. Data for tumor model Colon Carcinoma 38 (subcutaneous) in B6D2F1 (BDF1) mice
Conditions: endpoint: median tumor weight (est.), higher = larger tumour
Procedure, shortened: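 Compound antitumor activity was assessed in mice carrying transplantable tumors. Survival or tumor size was recorded, and each value is the treated-group measurement divided by that of the vehicle-treated control group.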

NC(=O)CC(N)C(=O)O (configuration not stated)
T/C (dose: 50.0 mg/kg/injection, schedule: Q07DX002 (ip), vehicle: other): 72 % of control | T/C (dose: 100.0 mg/kg/injection, schedule: Q07DX002 (ip), vehicle: other): 85 % of control | T/C (dose: 200.0 mg/kg/injection, schedule: Q07DX002 (ip), vehicle: other): 79 % of control | T/C (dose: 400.0 mg/kg/injection, schedule: Q07DX002 (ip), vehicle: other): 91 % of control | T/C (dose: 800.0 mg/kg/injection, schedule: Q07DX002 (ip), vehicle: other): 118 % of control | T/C (dose: 1600.0 mg/kg/injection, schedule: Q07DX002 (ip), vehicle: other): 88 % of control

Oc1c(Cl)cc(C(c2cc(Cl)c(O)c(Cl)c2)C(c2cc(Cl)c(O)c(Cl)c2)c2cc(Cl)c(O)c(Cl)c2)cc1Cl
T/C (dose: 12.5 mg/kg/injection, schedule: Q07DX002 (ip), vehicle: Klucel (hydroxypropylcellulose) (HPC)): 115 % of control and 99 % of control | T/C (dose: 25.0 mg/kg/injection, schedule: Q07DX002 (ip), vehicle: Klucel (hydroxypropylcellulose) (HPC)): 123 % of control | T/C (dose: 50.0 mg/kg/injection, schedule: Q07DX002 (ip), vehicle: Klucel (hydroxypropylcellulose) (HPC)): 96 % of control | T/C (dose: 100.0 mg/kg/injection, schedule: Q07DX002 (ip), vehicle: Klucel (hydroxypropylcellulose) (HPC)): 95 % of control and 104 % of control | T/C (dose: 200.0 mg/kg/injection, schedule: Q07DX002 (ip), vehicle: Klucel (hydroxypropylcellulose) (HPC)): 63 % of control and 86 % of control | T/C (dose: 400.0 mg/kg/injection, schedule: Q07DX002 (ip), vehicle: Klucel (hydroxypropylcellulose) (HPC)): 57 % of control and 82 % of control

C=C1C(=O)OC2/C=C(\C)CC(O)/C=C(/CO)CC(OC(=O)/C(C)=C/C)C12 (configuration not stated)
T/C (dose: 7.5 mg/kg/injection, schedule: Q07DX002 (ip), vehicle: saline + alcohol): 223 % of control | T/C (dose: 30.0 mg/kg/injection, schedule: Q07DX002 (ip), vehicle: saline + alcohol): 168 % of control | T/C (dose: 60.0 mg/kg/injection, schedule: Q07DX002 (ip), vehicle: saline + alcohol): 441 % of control

Cc1c2ccccc2cc2cccc[n+]12
T/C (dose: 10.0 mg/kg/injection, schedule: Q07DX002 (ip), vehicle: saline): 87 % of control and 96 % of control | T/C (dose: 20.0 mg/kg/injection, schedule: Q07DX002 (ip), vehicle: saline): 77 % of control | T/C (dose: 40.0 mg/kg/injection, schedule: Q07DX002 (ip), vehicle: saline): 112 % of control and 94 % of control | T/C (dose: 80.0 mg/kg/injection, schedule: Q07DX002 (ip), vehicle: saline): 109 % of control

Nc1nc(=S)c2ncn(C3CC(O)C(CO)O3)c2[nH]1 (configuration not stated)
T/C (dose: 4.0 mg/kg/injection, schedule: Q07DX003 (ip), vehicle: saline with Tween-80): 63 % of control | T/C (dose: 5.0 mg/kg/injection, schedule: Q07DX003 (ip), vehicle: saline with Tween-80): 32 % of control | T/C (dose: 8.0 mg/kg/injection, schedule: Q07DX003 (ip), vehicle: saline with Tween-80): 111 % of control | T/C (dose: 10.0 mg/kg/injection, schedule: Q07DX003 (ip), vehicle: saline with Tween-80): 22 % of control | T/C (dose: 16.0 mg/kg/injection, schedule: Q07DX003 (ip), vehicle: saline with Tween-80): 39 % of control | T/C (dose: 20.0 mg/kg/injection, schedule: Q07DX003 (ip), vehicle: saline with Tween-80): 25 % of control | T/C (dose: 32.0 mg/kg/injection, schedule: Q07DX003 (ip), vehicle: saline with Tween-80): 89 % of control | T/C (dose: 40.0 mg/kg/injection, schedule: Q07DX003 (ip), vehicle: saline with Tween-80): 14 % of control | T/C (dose: 64.0 mg/kg/injection, schedule: Q07DX003 (ip), vehicle: saline with Tween-80): 110 % of control | T/C (dose: 80.0 mg/kg/injection, schedule: Q07DX003 (ip), vehicle: saline with Tween-80): 4 % of control | T/C (dose: 128.0 mg/kg/injection, schedule: Q07DX003 (ip), vehicle: saline with Tween-80): 36 % of control

C[C@@]1(CO)[C@H](O)CC[C@@]2(C)[C@H]1CC[C@H]1C[C@@H]3C[C@@]12CC[C@@]3(O)COC(=O)CN
T/C (dose: 25.0 micrograms/kg/injection, schedule: Q07DX002 (ip), vehicle: saline + alcohol): 155 % of control | T/C (dose: 100.0 micrograms/kg/injection, schedule: Q07DX002 (ip), vehicle: saline + alcohol): 107 % of control

O=C(NO)c1cc(O)c(O)c(O)c1
T/C (dose: 50.0 mg/kg/injection, schedule: Q07DX002 (ip), vehicle: water): 80 % of control | T/C (dose: 100.0 mg/kg/injection, schedule: Q07DX002 (ip), vehicle: water): 70 % of control | T/C (dose: 200.0 mg/kg/injection, schedule: Q07DX002 (ip), vehicle: water): 68 % of control | T/C (dose: 400.0 mg/kg/injection, schedule: Q07DX002 (ip), vehicle: water): 83 % of control | T/C (dose: 800.0 mg/kg/injection, schedule: Q07DX002 (ip), vehicle: water): 40 % of control

— PubChem BioAssay AID212 (DTP/NCI, 2004)
